Earlier results as cited in patent US7323174B1, “Modulation of immune response and methods based thereon” (Arizona Board of Regents on behalf of The University of …, priority 2000, dated 2008).
No end group written: not given here.

Tests used:
[1] = system: Th1 and Th2 cytokine production; conditions: individuals infected with an immunodeficiency-type retrovirus; described in U.S. Pat. No. 5,911,990
[2] = system: immunodeficiency-type retrovirus; conditions: individuals infected with an immunodeficiency-type retrovirus; described in U.S. Pat. No. 5,911,990

Sequence: CKPISGHNSLFWYRQT [SEQ ID NO:1]
- aberrant Th1 and Th2 cytokine production [1]: normalize aberrant Th1 and Th2 cytokine production
- progression to AIDS [2]: suppress progression to AIDS
